From a melting point compilation (Tetko et al.; mined from patent text by program, amines drawn as free bases though some values may be those of a salt)

With `CS(=O)(=O)Nc1cc2c(cc1Oc1ccccc1)C(=O)C(Br)CO2` (stereo not given) the melting point was 137 to 140 °C. Compound `CCOc1ccccc1C(=O)CCC(=O)O` has a melting point of 125 to 127 °C. `CC(=O)NCCC1CCc2ccc3nn(C)cc3c21` (stereo not given) showed a melting point of 123 to 125 °C. In the case of `COc1ccc2[nH]c(SCc3cc(N)c(Br)cn3)nc2c1`, the melting point is reported as 183 to 184 °C. `CC(C)C(NC(=O)N(C)Cc1ccccn1)C(=O)N(C(=O)C(NC(=O)N(C)Cc1nccs1)C(C)C)C(Cc1ccccc1)CC(O)CCc1ccccc1` (stereo not given) gave a melting point of 156 to 158 °C. With `COC(=O)CCCCC#Cc1cc(Cl)ccc1N` the melting point was 66 °C. `CC1COc2c(N3CCC(NC(=O)OC(C)(C)C)C3)c(F)cc3c(=O)n(N)c(=O)n1c23` (stereo not given) showed a melting point of 114 to 116 °C. `COc1cc2cc(C)sc2c(Cl)c1Cl` showed a melting point of 113 to 114 °C. With `CC(C)Nc1nc(N)c(C(=O)NC(N)=S)nc1Cl` the melting point was 195 °C. Compound `COC(=O)C[C@@H]1C[C@@H](COc2ccc(-c3ccc(C(=N)NC(=O)OCc4ccccc4)cc3)cc2)N(c2ccccc2)C1=O` has a melting point of 157 to 159 °C. For `Cc1nnc(-c2ccc3occ(-c4ccncc4)c3c2)o1`, the melting point was 166 to 167 °C. Work on `CCOC(=O)C(=C1SC(=S)N(CC(=O)O)C1=O)c1csc(NC(C)=O)n1` yielded a melting point of 292 to 296 °C. `Cc1[nH]c(=S)n(Nc2cccc(Cl)c2)c1C(=O)O` showed a melting point of 166 to 168 °C. Work on `O=S(=O)(CCOc1ccc(Cl)cc1)c1ccc(Cl)cc1` yielded a melting point of 108 °C. `O=S(=O)(Nc1ccc2c(OCc3ccc(C4CCCCC4)cc3)cccc2c1)C(F)(F)F` gave a melting point of 108 to 110 °C. Compound `Cc1cccc(-c2n[nH]cc2-c2ccc(F)c(-c3csc(CO)n3)c2)n1` has a melting point of 89 to 92 °C. Compound `CCCOC1C=CC(=O)N1S(=O)(=O)c1ccccc1` (stereo not given) has a melting point of 56 to 58 °C. For `Cc1nnc(CO)n1-c1ccc(Cl)cc1C(=O)c1ccccc1Cl`, the melting point was 194 to 195 °C. Work on `CCc1cccc(C)c1CNc1cc(C(=O)O)cn2nc(C)nc12` yielded a melting point of 264 °C. Work on `CN(C)CCNCCc1ccc(Nc2ncc3c(n2)-c2ccccc2C(c2cccc(Br)c2)C3)cc1` (stereo not given) yielded a melting point of 75 to 77 °C. In the case of `C#CCCCC(=O)Nc1nc2nn(C)cc2c2nc(-c3ccco3)nn12`, the melting point is reported as 210 to 216 °C. With `CC1=C2CCN(CCC(N)=O)CC2c2ccccc21` (stereo not given) the melting point was 169 to 170 °C. Compound `CC(C)Oc1ccc(-n2c(C(=O)NCCNC(=O)OC(C)(C)C)cc3cc(Oc4ccc(C(F)(F)F)cn4)ccc32)cc1` has a melting point of 188 to 190 °C. Work on `O=C(O)COc1ccc(Cn2nnc(-c3cccc(C#CCc4ccc(F)cc4)c3)n2)cc1` yielded a melting point of 158 to 160 °C. `CCC(OC(C)C)c1cc(C(=O)OC)c(N)cc1C(F)(F)F` (stereo not given) showed a melting point of 54 to 56 °C. With `COc1ccccc1C(c1ccnc2ccccc12)C(C#N)(Cc1cccnc1)C(=O)OC(C)(C)C` (stereo not given) the melting point was 225 to 228 °C. `Cn1ncc(C(=O)N2CCCC2)c1C(=O)Nc1cc2nc(-c3ccccc3)nn2cc1F` showed a melting point of 250 to 251 °C. In the case of `CC(C)(C)OC(=O)c1cc(Br)cc([N+](=O)[O-])c1`, the melting point is reported as 77 to 78 °C. `Cc1[nH]cnc1-c1cc(C(C)(C)C)c(O)c(C(C)(C)C)c1` gave a melting point of 207 to 209 °C. Work on `Nc1nc2ccccc2c2c1ncn2CCOCCCc1ccccc1C(=O)O` yielded a melting point of 186 to 188 °C. With `Cc1nc(N2CCc3ccccc3CC2)c(C#N)c(=O)n1O` the melting point was 168 to 172 °C. `COc1cc2c(cc1OC)C(Cc1cc(I)c(NC(C)=O)c(I)c1)N(C(=O)C(F)(F)F)CC2` (stereo not given) gave a melting point of 218 to 219 °C. Compound `Nc1cc(C=O)nc(-c2ccc(C(F)(F)F)nc2)c1F` has a melting point of 166 to 167 °C. Work on `CCCn1ccc2c(c1=O)C(c1cccc(Cl)c1Cl)C(C(=O)OCC)=C(C)N2` (stereo not given) yielded a melting point of 264 to 265 °C. Compound `CC(O)c1ccc(Cl)c(Cl)c1Cl` (stereo not given) has a melting point of 87 to 89 °C. In the case of `CCCNc1nc(NCc2ccc(NC(=O)c3ccc(F)cc3)cc2)c2ccc(C)cc2n1`, the melting point is reported as 170 to 174 °C. `Cc1c(Cc2cccc(C(F)(F)F)c2)sc2c(-c3cccc(C(=O)NCCO)c3)cccc12` showed a melting point of 140 to 145 °C. For `COc1c(Br)csc1C(=O)O`, the melting point was 191 to 192 °C. Compound `CCCSc1cc(S(N)(=O)=O)c(N)cc1Cl` has a melting point of 109 to 111 °C. Work on `Clc1ccc(-c2n[nH]c(-c3ccncc3)n2)cc1` yielded a melting point of 264 to 266 °C. With `ClCCOc1ccc(C2=C(c3ccccc3)CCCc3ccccc32)cc1` the melting point was 171 to 172 °C. `CC(=O)OCCNc1ccc(Cl)cc1C(=O)c1ccccc1F` gave a melting point of 48 to 55 °C. `CCCCCCCCCCCCN(CCCCCCCCCCCC)c1ccccc1C1=c2ccc(=C3C(=O)c4ccccc4C3=O)cc2OC1=O` showed a melting point of 155 °C. With `COc1cc2c(cc1O)CCN(S(=O)(=O)c1ccccc1OC)C2` the melting point was 140 to 142 °C. With `OCc1cnc(-c2cccs2)s1` the melting point was 89 to 90 °C. `CCCCSc1nsnc1OC1CCNC1` (stereo not given) showed a melting point of 99 to 100 °C. Work on `O=C(NCC(=O)c1cccs1)c1ccc(F)cc1` yielded a melting point of 147 to 148 °C. Compound `O=c1ccoc(C(O)c2ccccc2F)c1OCc1ccccc1` (stereo not given) has a melting point of 116 °C. Compound `O=C(O)c1cccc(C23CC4CC(CC(C4)C2)C3)c1` has a melting point of 247 to 249 °C. Compound `COc1cc2c(cn1)OCC21C(=O)N(CC2CCOCC2)c2ccccc21` (stereo not given) has a melting point of 84 to 85 °C. With `CCCCCCCCCCCCCCCCCCOc1cccc(C(=O)OC)c1O` the melting point was 57 to 60 °C. With `C=Cc1ncn(-c2c(Cl)cc(C(F)(F)F)cc2Cl)n1` the melting point was 97 to 99 °C. With `COc1ccccc1-n1c(=O)[nH]c2c(C(N)=O)nc(-c3ccc(O)cc3)nc21` the melting point was 362 to 363 °C. In the case of `C[Si](C)(C)OC(CCl)(Cn1cncn1)c1ccc(F)cc1F` (stereo not given), the melting point is reported as 59 to 61 °C. Work on `Cn1c(C(F)(F)F)cc(=O)n(-c2c(F)cc(Cl)c3[nH]c(=O)oc23)c1=O` yielded a melting point of 67 to 71 °C. In the case of `CS(=O)(=O)c1ccc(-c2cnn(-c3cccc(Cl)c3)c(=O)c2CCc2ccccc2)cc1`, the melting point is reported as 142 to 145 °C. Compound `CCCc1[nH]c2cc(C(=O)O)ccc2c1C(=O)C1CCC1` has a melting point of 244 to 245 °C. Compound `CC(C)c1cccc(C(C)C)c1N1C(=O)c2ccccc2C1=O` has a melting point of 172 °C. In the case of `CCN(CC)c1ccc(C2(c3c(C)n(CC)c4ccccc34)OC(=O)c3ccccc32)c(N(CC)CC)c1` (stereo not given), the melting point is reported as 139 to 140 °C. Work on `CN(C)CC1CCN(c2nc(N3CCOCC3)c3ncnc(N(C)Cc4cccc5ccccc45)c3n2)CC1` yielded a melting point of 158 °C. `O=C(CO[C@H]1Cc2c(cccc2OCc2ccccc2)C[C@H]1OCC(=O)N1CCOCC1)N1CCOCC1` (relative stereo) gave a melting point of 106 to 110 °C. Work on `Oc1ccc2c(c1)CC(NCC(O)c1ccccc1)CC2` (stereo not given) yielded a melting point of 157 to 159 °C. `Cc1cc(C)c(N2CCCCC2=O)c(Cl)c1` showed a melting point of 108 to 109 °C. In the case of `NC1=Nc2ccc(OC(F)(F)F)cc2SC1`, the melting point is reported as 94 to 96 °C. `Cn1nc(-c2ccc(Cl)cc2)n(Cc2ccccc2)c1=O` gave a melting point of 90 to 91 °C. Work on `CCOCC(=NNc1ccc(C(F)(F)F)cc1)C(=O)NCc1ccc(Cl)nc1` yielded a melting point of 98 to 99 °C. `Cc1oc(-c2ccccc2)nc1COc1cccc(COc2ccc(CC(=O)O)cc2)c1` showed a melting point of 179 to 180 °C. In the case of `Cc1nc(N)sc1S(=O)(=O)N(C)CCO`, the melting point is reported as 118 °C. In the case of `CNC(=O)C1=C(C)OC(C)=C(C(=O)NC)C1c1ccc(Cl)cc1`, the melting point is reported as 256 to 259 °C. With `CC(=O)OC1CSC(Oc2cc(-c3ccnc(F)c3)cnc2F)C(OC(C)=O)C1OC(C)=O` (stereo not given) the melting point was 142 to 144 °C. `COc1ccc2c(C(=O)Nc3ccc(CN4CCN(C)CC4)c(C(F)(F)F)c3)nsc2c1` gave a melting point of 156 °C. With `CCCCNC(=O)Nc1nc2cc(CN3CCN(C(c4ccccc4)c4ccccc4)CC3)ccc2n1C` the melting point was 196 °C. In the case of `O=C(OCC1CC1)c1ncn2c1[C@@H]1CCCN1C(=O)c1c(Cl)cccc1-2`, the melting point is reported as 195 to 196 °C. In the case of `CCCCCCCCCCCCCCCNC(=O)OCCOCCOCCOC(=O)NCc1ccccn1`, the melting point is reported as 58 to 62 °C. Work on `COc1ccc2cc(-c3cc4c(cc3N)OCO4)ccc2c1` yielded a melting point of 130 to 132 °C. In the case of `CC(C#Cc1ccc(C(=O)O)c(O)c1)c1ccc2c(c1)C(C)(C)CCC2(C)C` (stereo not given), the melting point is reported as 191 to 192 °C. Work on `ClCc1ccc(OCc2csc(-c3ccccc3)n2)cc1` yielded a melting point of 98 to 99 °C. `C[C@]12CC[C@]3(C)C(O)CC[C@H]3[C@@H]1CCC1=C2CC=C(O)C1` (stereo not given in full) showed a melting point of 86 to 90 °C. Compound `CC(C)Nc1cccnc1N1CCN(C(=O)c2ccc(C(=O)O)cn2)CC1` has a melting point of 211 to 214 °C. With `CC(=O)OC1(C(=O)COC(=O)c2ccccc2)CCC2C3CC(C)C4=CC(=O)C=CC4(C)C3C(O)CC21C` (stereo not given) the melting point was 136 to 138 °C. `CC(Cl)(Cl)C1(Cl)N=C(Cl)C(Cl)=N1` showed a melting point of 58 to 60 °C. `CN1C(=O)CC[C@]2(C)c3ccc(-c4ccc([N+](=O)[O-])cn4)cc3CC[C@@H]12` showed a melting point of 70 to 80 °C. Work on `O=Cc1c2ccc(Cl)cc2c(Cl)c2ccc(Cl)cc12` yielded a melting point of 269 to 271 °C. `CN(C)c1ccc(/C=C/c2cc(/C=C/c3ccc4cc[nH]c4c3)[nH]n2)cc1` gave a melting point of 224 to 227 °C. With `C[C@@H](NC(=O)c1ccc(-c2ccc(C#N)cc2)s1)[C@](O)(Cn1cncn1)c1ccc(F)cc1F` the melting point was 210 to 211 °C. With `CN1CCCCC1CNC(=O)Nc1cc(OCC(F)(F)F)ccc1OCC(F)(F)F` (stereo not given) the melting point was 123 to 126 °C. Work on `COC(=O)c1cc(C(O)CN(C)C)ccc1OCc1ccccc1` (stereo not given) yielded a melting point of 79 to 81 °C. Compound `Cc1cc2c(nc(C)n2CCc2ccccc2)c(N(Cc2ccccc2)Cc2ccccc2)n1` has a melting point of 124 to 126 °C. Work on `CC(=O)N(C)C(=O)Oc1cccc2c1OC(C)(C)O2` yielded a melting point of 76 to 77 °C. `O=C1CCC(c2cc3c(s2)CC(NS(=O)(=O)c2ccccc2)CC3)=NN1` (stereo not given) showed a melting point of 230 to 232 °C. Work on `COc1ccc2ccc(O)c(N=O)c2c1` yielded a melting point of 122 to 124 °C. `CCN(CC)CC1CCCCN1CC#CCN1c2ccccc2C(=O)Nc2cccnc21` (stereo not given) gave a melting point of 132 to 134 °C. Compound `CC1(C)CC(=O)c2ccc(Cl)cc2O1` has a melting point of 63 to 66 °C. `CCn1cc(OS(C)(=O)=O)c(=O)c2ccccc21` showed a melting point of 141 to 143 °C. For `C=C(Cl)Cc1c(Cl)nc(NC=O)nc1Cl`, the melting point was 113 to 115 °C. `COc1ccc(N(C)C(C)=O)cc1C` showed a melting point of 65 to 66 °C. Work on `CCCCC(=O)Nc1cc(C(=O)N2CCOCC2)ccn1` yielded a melting point of 110 to 112 °C. Compound `COc1ccc(C(=O)c2ccccn2)cc1` has a melting point of 96 to 98 °C. In the case of `O=C(O)c1coc2c(Cl)cc(Cl)cc2c1=O`, the melting point is reported as 196 °C. In the case of `CCC(CCCc1cccnc1)NC(=O)C(O)c1ccccc1` (stereo not given), the melting point is reported as 122 to 124 °C.
